Several values for one entry are separate records, joined by “and”; a condition that tells them apart may be missing. Equal values may be shown once. Activity calls are given as the source filed them.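 Rule for the calls: active = compounds giving half or more protection of infected cells from virus-caused growth loss, again on retest; inactive = the rest.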
Test system: CEM cells HIV-1 protection, formazan growth assay
Assay: NCI AIDS Antiviral Assay
Settings: for IC50: measured here: growth of uninfected CEM cells
Outline: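 Five concentrations of each compound were applied to infected and uninfected human CEM cells. Protection from HIV-1 was judged from growth measured with a soluble formazan assay.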

| Compound | EC50 | IC50 | outcome |
| --- | --- | --- | --- |
| CC(=O)NNc1nc(C)c(C(/C=C/c2cccc([N+](=O)[O-])c2)=N/NC(=S)NN)s1 | > 72.4 µM | > 72.4 µM |  |
| CC1(C)OC(=O)C(=Cc2ccc3c(c2)OCO3)C(=O)O1 | > 129 µM | 110 µM |  |
| Cc1ccc(C2=Nc3ccccc3NC(=O)C2)cc1 | 20.4 µM | 75.9 µM |  |
| CCOC(=O)C1(C(=O)OCC)CC=C(C)CC12C(=O)Nc1ccccc12 (stereo unspecified) | > 72.4 µM | > 72.4 µM |  |
| COc1cc(Cl)c2c3c(c(C(=O)c4ccccc4)oc13)CCC2 |  |  | inactive |
| COc1ccc(/C=C(\C(=O)OCC(C)C)c2ccc(OC)c(OC)c2)cc1OC | > 200 µM | 166 µM |  |
| COC(=O)[C@]1(C)CCC[C@]2(C)c3ccc(C(C)C)cc3C(=O)[C@@H](Br)[C@@H]12 | > 200 µM | 8.51 µM |  |
| CN(C)c1ccc(/C=C(\NC(=O)c2ccccc2)C(=O)Nc2cccc(C(=O)NCCCO)c2)cc1 | > 200 µM | > 200 µM |  |
| Clc1ccccc1C(=Nc1ccccc1)C(=Nc1ccccc1)c1ccccc1Cl | > 1.74 µM | > 1.74 µM |  |
| CN(C)CCN1N=Nc2cccc3cccc1c23 |  |  | inactive |
| CC(=O)Oc1ccc(/C=C/C(=O)NCCOC(=O)/C=C/c2ccc(OC(C)=O)c(OC(C)=O)c2)cc1OC(C)=O | > 100 µM | 15.1 µM |  |
| CC1NS(=O)(=O)N(C)C1=O (stereo unspecified) |  |  | inactive |
| COc1cc(C2C3=C(CCCC3=O)N(c3ccc(C)cc3)C3=C2C(=O)CCC3)c([N+](=O)[O-])cc1OC | > 200 µM | 145 µM |  |
| [Cu+2].[O-]/C(=N\N=C/c1cccc(C(F)(F)F)c1)c1ccncc1.[O-]/C(=N\N=C\c1cccc(C(F)(F)F)c1)c1ccncc1 | > 100 µM | 5.62 µM |  |
| O=c1[nH]c2ccccc2nc1/C=C(\O)c1ccccc1O | > 13.5 µM | > 13.5 µM |  |
| CC1C=C2c3ccccc3CC2C2C(=O)OC(=O)C12 (stereo unspecified) | > 200 µM | > 200 µM |  |
| CC(=O)OCC(C)C1=C(O)C(=O)C2(C)C/C=C(/C)CC/C=C(\C)CCC(O)C(C)CCC12 (stereo unspecified) | > 200 µM | 11.5 µM |  |
| CCOC(C)CCCS(=O)(=O)O (stereo unspecified) | > 200 µM | > 200 µM |  |
| CCCCOC(=O)NC(=O)c1cc2cc(Cl)cc(Cl)c2oc1=O | > 13.8 µM | > 13.8 µM |  |
| CS1(=O)=NC(=N)c2ccccc21 (stereo unspecified) |  |  | inactive |
| COc1cc(COC(=O)N2CCCCC2C(=O)O)c([N+](=O)[O-])cc1OC (stereo unspecified) | > 676 µM | 457 µM |  |
| CC(=O)[C@H]1CCC2[C@@H]3CC=C4C[C@@H](OC5OC(COS(=O)(=O)O)C(O)C(O)C5O)CC[C@]4(C)C3CC[C@@]21C (stereo partly specified) | > 38 µM | > 38 µM |  |
| CN1C[C@@H]2CC(=O)CC[C@@H]2C[C@H]1C#N | > 676 µM | 339 µM |  |

| Compound | EC50 | IC50 | outcome |
| --- | --- | --- | --- |
| CC(=O)OC1OC(C2c3cccc(O)c3C(=O)c3c(O)cc(CO)cc32)C(O)C(O)C1O (stereo unspecified) | > 200 µM | 4.07 µM and 4.17 µM |  |
| CC(=O)O.[Ag] | > 64.6 µM | 18.2 µM |  |
| CCOC(=O)COc1cccc2c1C(=O)CCO2 |  |  | inactive |
| COc1ccc(N(C(=O)NCCO)c2ccccc2)cc1 | > 200 µM | > 200 µM |  |
| Nc1cccc(C(CC(=O)O)CC(=O)O)c1 | > 200 µM | > 200 µM |  |
| CCCCc1c2c(nc3c1CCCC3O)CCCC2 (stereo unspecified) | > 200 µM | 81.3 µM |  |
| CC[C@@H]1CC2CN3CCc4c([nH]c5ccc(OC)cc45)C(CO)(C2)C13 (stereo partly specified) |  |  | inactive |
| CN1CN(c2ccccc2)C2(CCN(Cc3csc4ccccc34)CC2)C1=O | > 200 µM | 66.1 µM |  |
| Cc1ccc(NC(=O)NC23CC4CC(CC(F)(C4)C2)C3)cc1 | > 61.7 µM | > 61.7 µM |  |
| CC(C)(C)OC(=O)NCCc1ccc(N)cc1 | > 200 µM | 158 µM |  |
| COC(=O)c1ncn(C2CCCCC2)c1O | > 200 µM | > 200 µM |  |
| CCOC(=O)Nn1cnnc1C | > 200 µM | > 200 µM |  |
| Cc1nnc2nc(-c3ccccc3)nc(-c3ccccc3)n12 | > 200 µM | > 200 µM |  |
| CC(=O)C(N=Nc1nc2ccccc2[nH]1)C(C)=O | > 200 µM | 20 µM |  |
| O=C(CCC(=O)Nc1ccc(Cl)cc1)CC(=O)c1ccc(F)cc1 |  |  | inactive |
| O=c1c2ccccc2oc2cc([N+](=O)[O-])cc([N+](=O)[O-])c12 | > 5.01 µM | 4.17 µM |  |
| CCCC(C(=O)OCC(C)N1CCCC1(C)C)C1CCCC1 (stereo unspecified) |  |  | inactive |
| CCCCCCc1cc2cc(-c3csc(-c4ccc(OC)cc4)n3)c(=O)oc2cc1O | > 200 µM | 9.12 µM |  |
| O=S(=O)(O)c1cccc2c1CN1CCCCC1C2 (stereo unspecified) | > 200 µM | > 200 µM |  |
| Cc1cc2c(c(=O)[nH]1)C(=O)OC2 | > 1100 µM | > 1100 µM |  |
| CCN(CC)c1ccc2c(-c3ccccc3C(=O)O)c3ccc(=[N+](CC)CC)cc-3oc2c1 | > 100 µM | 9.12 µM and 13.5 µM |  |
| CC12CCCCC1C(=O)C2(Cl)Cl (stereo unspecified) |  |  | inactive |
| CC(=O)n1cc(CC(C)O)c(=O)[nH]c1=O (stereo unspecified) | > 1170 µM | > 1170 µM |  |

| Compound | EC50 | IC50 | outcome |
| --- | --- | --- | --- |
| Cc1c(Cl)cccc1NC(=O)CC1Sc2ccccc2NC1=O (stereo unspecified) | > 27.5 µM | > 27.5 µM and 15.5 µM |  |
| [Cu].c1ccc2c3[n-]c(c2c1)/N=c1\[n-]/c(c2ccccc12)=N\c1[n-]c(c2ccccc12)/N=c1\[n-]/c(c2ccccc12)=N\3 | > 200 µM | 51.3 µM |  |
| CNCS(=O)(=O)O | > 200 µM | 97.7 µM |  |
| COc1ccc(C(=O)Nc2cc(C(=CCC[C@H]3CC[C@@]4(C)[C@@H](CC[C@@H]5[C@@H]4CC[C@]4(C)[C@@H](C(C)CCCC(C)C)CC[C@@H]54)C3)c3cc(NC(=O)c4ccc(OC)c(C(=O)O)c4)c(OC)c(C(=O)O)c3)cc(C(=O)O)c2OC)cc1C(=O)O (stereo partly specified) | 36.3 µM | 49 µM |  |
| CNC(c1ccncc1)C(NC)c1ccncc1 (stereo unspecified) | > 200 µM | > 200 µM |  |
| CC(C)=CCc1ccc2[nH]c3c(c2c1)C(=O)C(=O)C(C)=C3C(O)C(C)O (stereo unspecified) | > 200 µM | 1.95 µM |  |
| O=c1c2nc3ccccc3c(=O)n2ncn1-c1ccccc1Cl | > 200 µM | > 200 µM |  |
| c1ccc(CSC(SCc2ccccc2)c2cccc3ccccc23)cc1 | 5.89 µM | > 200 µM |  |
| CCOC(=O)C1Cc2c([nH]c(=O)[nH]c2=O)OC1c1ccc([N+](=O)[O-])cc1 (stereo unspecified) | > 363 µM | > 363 µM |  |
| CSc1nc(=S)[nH]c2n[nH]c(C)c12 | > 200 µM | > 200 µM |  |
| CC(C)N(C(=O)C12C3C4C1C1C2C3C41C(=O)C(C)(C)C)C(C)C (stereo unspecified) | > 158 µM | 138 µM |  |
| CCOC(=O)C(NC(=O)CC(C)C)(Nc1ccc(C(F)(F)F)cc1)C(F)(F)F (stereo unspecified) | > 200 µM | 56.2 µM |  |
| CCOCc1ccccc1C1(O)c2ccccc2Oc2ccccc21 | > 200 µM | 186 µM |  |
| Cc1ccc(S(=O)(=O)NC(=O)NCCSSCCNC(=O)NS(=O)(=O)c2ccc(C)cc2)cc1 | > 200 µM | > 200 µM |  |
| COc1ccc(-n2cc3c(c2)C(=O)OC3=O)cc1OC |  |  | inactive |
| CCN(CC)CCCNC(=O)Cc1ccccc1Nc1c(Cl)cccc1Cl | > 200 µM | 16.6 µM |  |
| S=C1NCCN1C(=S)Nc1ccccc1 | > 141 µM | > 141 µM |  |
| CCCN1CN(C(C(=O)N[C@@H]2C(=O)N3C(C(=O)O)=C(C)CSC23)c2ccccc2)CSC1=S (stereo partly specified) | > 355 µM | 204 µM |  |
| N#Cc1c(OCCF)c2ccccc2n2c1nc1ccccc12 | > 100 µM | > 100 µM |  |
| O=C1SC(=NC2CCCCC2)N(C2CCCCC2)/C1=C1\C(=O)SC(=NC2CCCCC2)N1C1CCCCC1 | > 26.9 µM | > 26.9 µM |  |
| Cc1ccc(C)n1-c1ccccc1C1C=Cn2c(=O)nnc3c(OC(C)C)c(OC(C)C)c(O)c1c32 (stereo unspecified) | > 200 µM | 25.7 µM |  |
| Nc1cc2c3c(c1)Oc1cc(N)cc4c1C3c1c(cc(N)cc1O4)O2 | > 30.9 µM | 23.4 µM |  |
| C=CCC1(C2=C(C)C(=O)c3ccccc32)CCCS1 (stereo unspecified) | > 200 µM | 31.6 µM |  |

| Compound | EC50 | IC50 | outcome |
| --- | --- | --- | --- |
| CC(C)(C)/C(O)=C\c1nc2ccc(C(F)(F)F)cc2[nH]c1=O | > 200 µM | > 200 µM |  |
| COc1ccc(S(=O)(=O)N/N=C/CN2C(=O)c3ccccc3C2=O)cc1OC | > 64.6 µM | > 64.6 µM |  |
| CC(CCCC1SCC2NC(=O)NC21)C(=O)O (stereo unspecified) | > 977 µM | > 977 µM |  |
| COc1ccc(-c2cc(-c3ccccc3)[nH]c(=S)c2C#N)cc1 | > 200 µM | 67.6 µM |  |
| O=C1N=C2Sc3ccc4ccccc4c3N2C1=O | > 355 µM | 182 µM |  |
| Cc1cn(CC(=O)NCCO)c(=O)[nH]c1=O | > 200 µM | > 200 µM |  |
| O=C(O)CCCC#CCCCC(=O)O | > 200 µM | > 200 µM |  |
| N#Cc1c(N2CCC(O)C2)c2ccccc2n2c1nc1ccccc12 (stereo unspecified) | > 50.1 µM | > 50.1 µM |  |
| O=C(O)c1nn(-c2ccccn2)c(O)c1N=Nc1ccc(/C=C\c2ccc(N=Nc3c(C(=O)O)nn(-c4ccccn4)c3O)cc2S(=O)(=O)O)c(S(=O)(=O)O)c1 | > 1.48 µM | > 1.48 µM |  |
| NC(=S)NN=C1Cc2ccccc2C1 | > 200 µM | 145 µM |  |
| CC[C@@H]1CC2CN3CCc4c([nH]c5cc(OC)ccc45)C(C(=O)OC)(C2)C13 (stereo partly specified) |  |  | inactive |
| O=C(NC12CC3CC(CC(C3)C1)C2)C(=O)c1c[nH]c2ccc([N+](=O)[O-])cc12 | > 200 µM | 30.2 µM |  |
| N#CCCN(C1=NN(C(=O)CC(=O)Nc2ccc(Cl)cc2)C(c2ccccc2)C1)c1ccc(Cl)cc1 (stereo unspecified) | > 50.1 µM | > 50.1 µM |  |
| c1cc(-c2csc(-c3ccsc3)c2)cs1 | > 200 µM | > 200 µM |  |
| CSc1nc(C)c2c(n1)N(c1ccc(Cl)cc1)CC2 | > 200 µM | > 200 µM |  |
| CN1C(=O)c2ccccc2NC(=O)c2cnn(C)c21 |  |  | inactive |
| Oc1cc(O)c2c(c1)O[C@@H](c1ccc(O)c(O)c1)[C@H](O)C2 | > 200 µM | > 200 µM |  |
| Cc1ccc(S(=O)(=O)NCCCN(CCCNS(=O)(=O)c2ccc(C)cc2)S(=O)(=O)c2ccc(C)cc2)cc1 | > 2.45 µM | > 2.45 µM |  |
| Cn1nc2ccc3nccc(NCCNCCCl)c3c2n1 | > 1.17 µM | > 1.17 µM |  |
| CC1=C(C(=O)Nc2ccccc2C)C(c2ccccc2O)C(C(=O)Nc2ccccc2C)=C(C)N1 | 9.55 µM | 15.5 µM |  |
